The structures appear in SMILES notation. Read-outs that look alike come from different tables or passages of the source.

Among the data in patent publication US9295673B2, “Combination of mTOR inhibitors and P13-kinase inhibitors, and uses thereof” (Intellikine LLC, priority 2011, dated 2016) are IC50 values, retold here.

The target in experiment [1] is PI3K γ (Homo sapiens, UniProt P48736). In words: PI 3-Kinase (human) HTRF assay, PI3K γ. To be noted: read-out: PI3K γ IC50. (In general: In TR-FRET formats the signal depends on donor and acceptor labels being close together.)
PI3K γ, sequence (P48736 whole entry): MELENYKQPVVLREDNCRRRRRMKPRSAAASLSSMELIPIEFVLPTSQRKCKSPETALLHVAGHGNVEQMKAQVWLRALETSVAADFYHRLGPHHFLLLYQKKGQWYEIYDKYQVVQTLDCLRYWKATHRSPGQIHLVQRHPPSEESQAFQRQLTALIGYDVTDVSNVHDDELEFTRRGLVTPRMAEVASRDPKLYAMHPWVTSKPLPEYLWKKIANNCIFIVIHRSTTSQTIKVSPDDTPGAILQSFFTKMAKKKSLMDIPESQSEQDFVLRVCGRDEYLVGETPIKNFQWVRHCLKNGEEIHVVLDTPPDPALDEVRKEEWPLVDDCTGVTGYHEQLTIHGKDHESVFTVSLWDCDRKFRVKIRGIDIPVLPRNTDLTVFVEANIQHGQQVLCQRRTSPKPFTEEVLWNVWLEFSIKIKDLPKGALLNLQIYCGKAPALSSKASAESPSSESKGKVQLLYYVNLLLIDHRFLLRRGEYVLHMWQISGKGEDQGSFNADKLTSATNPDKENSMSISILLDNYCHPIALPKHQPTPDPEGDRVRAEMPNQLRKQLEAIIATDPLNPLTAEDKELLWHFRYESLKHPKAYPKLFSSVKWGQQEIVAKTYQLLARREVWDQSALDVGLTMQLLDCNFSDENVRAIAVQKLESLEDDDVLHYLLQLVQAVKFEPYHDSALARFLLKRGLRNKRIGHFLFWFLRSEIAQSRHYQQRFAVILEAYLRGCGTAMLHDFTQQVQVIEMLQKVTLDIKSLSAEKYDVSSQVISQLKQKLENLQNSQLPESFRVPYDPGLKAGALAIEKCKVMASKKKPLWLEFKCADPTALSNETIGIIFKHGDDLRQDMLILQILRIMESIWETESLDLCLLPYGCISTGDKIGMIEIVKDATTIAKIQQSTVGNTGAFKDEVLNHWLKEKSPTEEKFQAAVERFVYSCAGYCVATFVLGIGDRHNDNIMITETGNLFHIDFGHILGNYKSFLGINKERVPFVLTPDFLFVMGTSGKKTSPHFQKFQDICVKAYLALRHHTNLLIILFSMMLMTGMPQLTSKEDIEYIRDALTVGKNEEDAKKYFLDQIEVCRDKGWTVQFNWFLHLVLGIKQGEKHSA
Protocol: (§1) An exemplary system is PI 3-Kinase (human) HTRF™ Assay from Upstate. […] Briefly, the assay is a time resolved FRET assay that indirectly measures PIP3 product formed by the activity of a PI3-K. The kinase reaction is performed in a microtitre plate (e.g., a 384 well microtitre plate). The total reaction volume is approximately 20 ul per well. In the first step, each well receives 2 ul of test compound in 20% dimethylsulphoxide resulting in a 2% DMSO final concentration. […] The plate is sealed and incubated for 15 minutes at room temperature. […] The plate is sealed and incubated for 1 hour at room temperature. The reaction is stopped by adding 5 ul of Stop Solution per well and then 5 ul of Detection Mix is added per well. The plate is sealed, incubated for 1 hour at room temperature, and then read on an appropriate plate reader. Data is analyzed and IC50s are generated using GraphPad Prism 5.
The target in experiment [2] is PI3K α (Homo sapiens, UniProt P42336). In words: PI 3-Kinase (human) HTRF assay, PI3K α. To be noted: read-out: PI3K α IC50.
PI3K α, sequence (P42336 whole entry): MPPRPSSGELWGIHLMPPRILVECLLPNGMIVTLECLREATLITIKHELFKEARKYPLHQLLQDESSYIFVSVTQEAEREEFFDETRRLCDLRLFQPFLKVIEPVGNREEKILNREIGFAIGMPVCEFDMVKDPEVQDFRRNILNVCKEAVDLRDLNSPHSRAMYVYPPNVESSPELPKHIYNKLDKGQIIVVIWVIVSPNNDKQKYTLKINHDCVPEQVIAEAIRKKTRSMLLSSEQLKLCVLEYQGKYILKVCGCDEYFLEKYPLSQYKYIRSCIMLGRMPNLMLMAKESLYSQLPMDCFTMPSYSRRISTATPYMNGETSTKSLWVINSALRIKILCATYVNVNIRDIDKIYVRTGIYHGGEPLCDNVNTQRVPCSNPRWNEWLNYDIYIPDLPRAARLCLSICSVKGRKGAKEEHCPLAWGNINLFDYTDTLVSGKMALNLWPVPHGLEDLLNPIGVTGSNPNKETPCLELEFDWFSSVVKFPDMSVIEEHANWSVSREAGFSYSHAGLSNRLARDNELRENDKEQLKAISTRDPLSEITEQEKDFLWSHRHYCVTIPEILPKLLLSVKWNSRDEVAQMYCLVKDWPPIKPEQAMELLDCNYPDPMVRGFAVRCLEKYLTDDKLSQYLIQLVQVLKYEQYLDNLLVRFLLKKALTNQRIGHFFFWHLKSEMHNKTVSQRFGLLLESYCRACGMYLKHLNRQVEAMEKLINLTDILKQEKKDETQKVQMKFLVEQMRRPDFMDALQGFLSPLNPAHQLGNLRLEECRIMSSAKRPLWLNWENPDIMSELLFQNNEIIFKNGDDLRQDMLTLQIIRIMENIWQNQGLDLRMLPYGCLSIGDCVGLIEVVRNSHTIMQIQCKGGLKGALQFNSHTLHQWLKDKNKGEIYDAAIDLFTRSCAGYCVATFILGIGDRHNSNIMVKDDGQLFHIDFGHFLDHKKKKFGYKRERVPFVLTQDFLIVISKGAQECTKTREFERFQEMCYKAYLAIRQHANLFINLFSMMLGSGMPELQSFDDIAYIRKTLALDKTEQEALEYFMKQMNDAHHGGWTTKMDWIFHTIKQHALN
PI3K α, sequence (P27986 whole entry partner): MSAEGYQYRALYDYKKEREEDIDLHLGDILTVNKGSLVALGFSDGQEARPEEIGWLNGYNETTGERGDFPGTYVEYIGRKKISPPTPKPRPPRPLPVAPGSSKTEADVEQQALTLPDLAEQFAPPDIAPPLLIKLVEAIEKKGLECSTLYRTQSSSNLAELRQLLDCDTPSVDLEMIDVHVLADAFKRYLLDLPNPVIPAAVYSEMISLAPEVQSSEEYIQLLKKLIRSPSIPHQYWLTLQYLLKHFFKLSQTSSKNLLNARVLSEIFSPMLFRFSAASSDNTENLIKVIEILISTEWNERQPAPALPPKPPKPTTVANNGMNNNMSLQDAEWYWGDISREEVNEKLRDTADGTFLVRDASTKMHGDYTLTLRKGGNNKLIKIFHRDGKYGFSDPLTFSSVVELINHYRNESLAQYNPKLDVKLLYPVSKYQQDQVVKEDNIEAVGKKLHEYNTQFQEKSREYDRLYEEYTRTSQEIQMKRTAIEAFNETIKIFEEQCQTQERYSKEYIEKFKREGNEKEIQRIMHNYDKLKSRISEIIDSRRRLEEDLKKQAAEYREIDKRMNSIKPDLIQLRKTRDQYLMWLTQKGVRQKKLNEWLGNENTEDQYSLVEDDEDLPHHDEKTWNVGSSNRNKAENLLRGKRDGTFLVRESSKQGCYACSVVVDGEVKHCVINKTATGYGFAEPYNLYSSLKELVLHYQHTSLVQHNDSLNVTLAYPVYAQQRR
Protocol: as §1
The target of experiment [3] is PI3K δ (Homo sapiens, UniProt O00329). In words: PI 3-Kinase (human) HTRF assay, PI3K δ. To be noted: read-out: PI3K δ IC50.
PI3K δ, sequence (O00329 whole entry): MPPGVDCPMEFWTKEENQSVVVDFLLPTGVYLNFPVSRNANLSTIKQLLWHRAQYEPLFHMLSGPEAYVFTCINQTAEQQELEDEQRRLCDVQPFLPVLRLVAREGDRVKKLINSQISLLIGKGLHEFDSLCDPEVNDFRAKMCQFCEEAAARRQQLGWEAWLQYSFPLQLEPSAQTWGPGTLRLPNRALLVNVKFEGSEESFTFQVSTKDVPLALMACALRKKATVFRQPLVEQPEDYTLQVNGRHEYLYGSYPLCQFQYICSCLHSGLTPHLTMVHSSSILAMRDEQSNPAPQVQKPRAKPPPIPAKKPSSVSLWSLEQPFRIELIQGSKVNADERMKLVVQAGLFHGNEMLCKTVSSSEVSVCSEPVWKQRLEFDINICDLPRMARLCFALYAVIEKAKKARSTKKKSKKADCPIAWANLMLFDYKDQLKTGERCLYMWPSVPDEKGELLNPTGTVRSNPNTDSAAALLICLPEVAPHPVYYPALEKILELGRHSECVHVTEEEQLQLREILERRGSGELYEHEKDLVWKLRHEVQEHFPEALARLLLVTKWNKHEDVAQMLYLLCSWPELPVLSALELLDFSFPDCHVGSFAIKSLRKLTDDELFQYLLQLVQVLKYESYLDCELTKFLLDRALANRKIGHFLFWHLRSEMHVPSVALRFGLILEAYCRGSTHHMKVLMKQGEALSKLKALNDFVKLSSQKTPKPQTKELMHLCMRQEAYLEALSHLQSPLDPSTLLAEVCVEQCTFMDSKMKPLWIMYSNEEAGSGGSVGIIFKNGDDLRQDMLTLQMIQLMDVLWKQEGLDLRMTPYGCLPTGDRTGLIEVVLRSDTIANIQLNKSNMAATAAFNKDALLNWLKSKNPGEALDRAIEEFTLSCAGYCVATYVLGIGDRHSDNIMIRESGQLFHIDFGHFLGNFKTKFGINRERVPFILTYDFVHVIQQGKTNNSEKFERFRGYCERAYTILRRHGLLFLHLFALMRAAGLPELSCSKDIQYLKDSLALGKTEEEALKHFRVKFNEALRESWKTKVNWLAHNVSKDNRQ
PI3K δ, sequence (P27986 whole entry partner): as the sequence (P27986 whole entry partner) above
Protocol: as §1
Experiment [4] concerns the target T1, mTOR (Homo sapiens, UniProt P42345).
T1 construct: purchased Invitrogen
Kind of experiment: mTOR kinase inhibition assay (radiometric or LanthaScreen TR-FRET). In kind it is biochemical. The conditions noted are these: read-out: mTORC IC50.
Protocol: The compounds described herein can be tested against recombinant mTOR (Invitrogen) in an assay containing 50 mM HEPES, pH 7.5, 1 mM EGTA, 10 mM MgCl2, 2.5 mM, 0.01% Tween, 10 μM ATP (2.5 μCi of μ-32P-ATP), and 3 mg/mL BSA. Rat recombinant PHAS-1/4EBP1 (Calbiochem; 2 mg/mL) is used as a substrate. Reactions are terminated by spotting onto nitrocellulose, which is washed with 1M NaC1/1% phosphoric acid (approximately 6 times, 5-10 minutes each). Sheets are dried and the transferred radioactivity quantitated by phosphorimaging.
For instance, one can use Invitrogen's LanthaScreen™ Kinase assay to test the inhibitors of mTOR disclosed herein. This assay is a time resolved FRET platform that measures the phosphorylation of GFP labeled 4EBP1 by mTOR kinase. The kinase reaction is performed in a white 384 well microtitre plate. The total reaction volume is 20 ul per well and the reaction buffer composition is 50 mM HEPES pH7.5, 0.01% Polysorbate 20, 1 mM EGTA, 10 mM MnCl2, and 2 mM DTT. In the first step, each well receives 2 ul of test compound in 20% dimethylsulphoxide resulting in a 2% DMSO final concentration. […] The plate is sealed and incubated for 1 hour at room temperature. […] The plate is sealed, incubated for 1 hour at room temperature, and then read on a plate reader set up for LanthaScreen™ TR-FRET. Data is analyzed and IC50s are generated using GraphPad Prism 5.

The target in experiment [5] is PI3K β (Homo sapiens, UniProt P42338). In words: PI 3-Kinase (human) HTRF assay, PI3K β. The conditions noted are these: read-out: PI3K β IC50.
PI3K β, sequence (P42338 whole entry): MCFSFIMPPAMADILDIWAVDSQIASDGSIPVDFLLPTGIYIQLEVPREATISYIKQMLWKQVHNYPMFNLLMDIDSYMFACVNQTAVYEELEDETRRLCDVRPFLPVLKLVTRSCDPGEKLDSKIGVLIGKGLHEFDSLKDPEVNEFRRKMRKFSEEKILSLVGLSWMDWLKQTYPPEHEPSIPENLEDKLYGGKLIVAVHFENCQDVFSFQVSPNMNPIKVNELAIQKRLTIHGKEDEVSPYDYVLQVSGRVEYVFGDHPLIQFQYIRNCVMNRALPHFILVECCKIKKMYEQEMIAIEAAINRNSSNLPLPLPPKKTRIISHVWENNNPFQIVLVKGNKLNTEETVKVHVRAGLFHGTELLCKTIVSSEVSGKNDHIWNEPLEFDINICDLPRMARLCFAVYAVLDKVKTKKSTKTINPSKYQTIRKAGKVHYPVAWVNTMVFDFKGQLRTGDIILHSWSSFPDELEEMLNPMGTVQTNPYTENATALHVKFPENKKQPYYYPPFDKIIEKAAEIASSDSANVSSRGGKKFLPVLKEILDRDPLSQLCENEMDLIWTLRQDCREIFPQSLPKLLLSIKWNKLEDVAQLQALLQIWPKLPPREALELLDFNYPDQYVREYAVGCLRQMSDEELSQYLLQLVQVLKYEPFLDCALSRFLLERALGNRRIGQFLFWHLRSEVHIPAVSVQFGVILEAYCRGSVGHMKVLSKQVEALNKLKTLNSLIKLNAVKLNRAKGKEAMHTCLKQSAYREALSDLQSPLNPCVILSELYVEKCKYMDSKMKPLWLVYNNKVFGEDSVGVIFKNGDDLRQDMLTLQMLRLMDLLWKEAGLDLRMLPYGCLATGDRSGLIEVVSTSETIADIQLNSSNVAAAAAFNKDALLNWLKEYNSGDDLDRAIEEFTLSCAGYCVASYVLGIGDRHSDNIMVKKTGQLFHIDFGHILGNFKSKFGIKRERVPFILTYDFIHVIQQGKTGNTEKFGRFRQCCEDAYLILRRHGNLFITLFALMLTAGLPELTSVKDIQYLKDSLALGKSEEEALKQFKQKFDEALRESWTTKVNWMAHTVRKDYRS
PI3K β, sequence (P27986 whole entry partner): as the sequence (P27986 whole entry partner) above
Protocol: as §1

For the molecule `COc1cc(Cl)c2[nH]c(-c3nn(C4CCOCC4)c4ncnc(N)c34)cc2c1` [Compound 67], the half-inhibitory concentration (IC50) in experiment [1] (Table 2), in experiment [2] (Table 2), in experiment [3] (Table 2), in experiment [4] (Table 2) and in experiment [5] (Table 2) was > 500 nM in each case.

With `Nc1ncnc2c1c(-c1cc3cccc(O)c3[nH]1)nn2C1CCCC1` [Compound 36], the IC50 (commonly the concentration that gives 50% inhibition) in experiment [1] (Table 2) is 50 to 100 nM; in experiment [2] (Table 2), > 500 nM; in experiment [3] (Table 2) it was 100 to 500 nM; in experiment [4] (Table 2), < 10 nM.

Regarding `CN1CC2CN(c3cnc4ccc(-c5ccc6oc(N)nc6c5)nc4n3)CC2C1` (stereo not shown) [Compound 629], the IC50 in experiment [1] (Table 4) was < 10000 nM; in experiment [2] (Table 4), < 100 nM; in experiment [3] (Table 4), < 1000 nM; in experiment [4] (Table 4), > 10000 nM; in experiment [5] (Table 4), < 1000 nM.

With `CC(C)N1CCC(n2nc(-c3cc4cccc(O)c4[nH]3)c3c(N)ncnc32)CC1` [Compound 64], the IC50 was 100 to 500 nM in experiment [1] (Table 2); > 500 nM in experiment [2] (Table 2); 100 to 500 nM in experiment [3] (Table 2); < 25 nM in experiment [4] (Table 2); > 500 nM in experiment [5] (Table 2).

As to `Nc1ncnc2c1c(-c1cc3cc(O)ccc3[nH]1)nn2C1CCC(N2CCOCC2)CC1` (stereo not shown) [Compound 57], the IC50 in experiment [1] (Table 2) was > 500 nM; in experiment [2] (Table 2) it was > 500 nM; in experiment [4] (Table 2) it was < 25 nM; in experiment [5] (Table 2), > 500 nM.

Regarding `CC(C)N1CCC(n2nc(-c3cc4c(Cl)ccc(O)c4[nH]3)c3c(N)ncnc32)CC1` [Compound 71], the IC50 was > 500 nM in experiment [1] (Table 2); > 500 nM in experiment [2] (Table 2); > 500 nM in experiment [3]; < 100 nM in experiment [4] (Table 2); > 500 nM in experiment [5] (Table 2).

Turning to `CN1CCN(C2CC(n3nc(-c4cc5cc(O)ccc5[nH]4)c4c(N)ncnc43)C2)CC1` (stereo not shown) [Compound 52], the IC50 in experiment [1] is > 500 nM; in experiment [2] it was > 500 nM; in experiment [3], 100 to 500 nM; in experiment [4] (Table 2), < 500 nM; in experiment [5] (Table 2) it was > 500 nM.

With `CNC(=O)Cn1nc(-c2cc3cc(O)ccc3[nH]2)c2c(N)ncnc21` [Compound 35], the IC50 in experiment [1] (Table 2), in experiment [2], in experiment [3] and in experiment [4] (Table 2) was > 500 nM throughout.

Take `Nc1ncnc2c1c(-c1cc3cccc(Cl)c3[nH]1)nn2C1CCOCC1` [Compound 51]: the IC50 is 100 to 500 nM in experiment [1] (Table 2); > 500 nM in experiment [2]; 100 to 500 nM in experiment [3] (Table 2); < 50 nM in experiment [4] (Table 2); > 500 nM in experiment [5] (Table 2).

For `COc1cccc2cc(-c3nn(C4CCN(C(=O)C5CC5)CC4)c4ncnc(N)c34)[nH]c12` [Compound 66], the 50% inhibitory concentration (IC50) in experiment [1] (Table 2), in experiment [2] (Table 2), in experiment [3], in experiment [4] (Table 2) and in experiment [5] (Table 2) was > 500 nM throughout.

In the case of `CN1CCN(C2CCC(n3nc(-c4cc5cc(O)ccc5[nH]4)c4c(N)ncnc43)CC2)CC1` (stereo not shown) [Compound 58], the IC50 in experiment [1] (Table 2), in experiment [2], in experiment [4] (Table 2) and in experiment [5] (Table 2) was > 500 nM in each case.

On to `Nc1ncnc2c1c(-c1cc3cc(O)ccc3[nH]1)nn2Cc1cccnc1` [Compound 38], for which the IC50 in experiment [1] is > 500 nM; in experiment [2] (Table 2), > 500 nM; in experiment [3] (Table 2) it was > 500 nM; in experiment [4] (Table 2), < 500 nM.

Turning to `CC(=O)N1CCC(n2nc(-c3cc4cc(O)cc(Cl)c4[nH]3)c3c(N)ncnc32)CC1` [Compound 70], the 50% inhibitory concentration (IC50) in experiment [1] (Table 2) is 50 to 100 nM; in experiment [2] (Table 2), 100 to 500 nM; in experiment [3] (Table 2) it was 10 to 25 nM; in experiment [4] (Table 2), < 5 nM; in experiment [5] (Table 2) it was > 500 nM.

With `CC(=O)N1CCC(n2nc(-c3cc4c(Cl)ccc(O)c4[nH]3)c3c(N)ncnc32)CC1` [Compound 69], the IC50 in experiment [1] (Table 2) is > 500 nM; in experiment [2] (Table 2), > 500 nM; in experiment [3], 100 to 500 nM; in experiment [4] (Table 2), < 5 nM; in experiment [5] (Table 2) it was > 500 nM.

Consider `Nc1ncnc2c1c(-c1cc3ccc(O)cc3[nH]1)nn2C1CCOCC1` [Compound 60], for which the IC50 is 50 to 100 nM in experiment [1] (Table 2), > 500 nM in experiment [2] (Table 2), < 100 nM in experiment [4] (Table 2) and > 500 nM in experiment [5] (Table 2).

Consider `CC(C)n1nc(-c2cc3c(Cl)ccc(O)c3[nH]2)c2c(N)ncnc21` [Compound 39], for which the IC50 in experiment [1] was > 500 nM; in experiment [2] (Table 2), > 500 nM; in experiment [3] (Table 2), > 500 nM; in experiment [4] (Table 2), < 10 nM.

For the molecule `Nc1ncnc2c1c(-c1cc3cc(O)ccc3[nH]1)nn2CCN1CCOCC1` [Compound 33], the IC50 in experiment [1] (Table 2) is > 500 nM; in experiment [2] (Table 2) it was > 500 nM; in experiment [3] (Table 2), > 500 nM; in experiment [4] (Table 2), < 500 nM.

Turning to `CC(C)N1CCC(n2nc(-c3cc4cc(O)ccc4[nH]3)c3c(N)ncnc32)CC1` [Compound 55], the IC50 in experiment [1] (Table 2) is > 500 nM; in experiment [2] (Table 2), > 500 nM; in experiment [4] (Table 2) it was < 500 nM; in experiment [5] (Table 2) it was > 500 nM.

`CC(=O)Nc1nc2ccc(-c3ccc4oc(N)nc4c3)cc2s1` [Compound 231]: the IC50 in experiment [1] is < 100 nM; in experiment [2], < 100 nM; in experiment [3], < 100 nM; in experiment [4] it was < 10000 nM; in experiment [5], < 1000 nM.

Regarding `CC(C)n1nc(-c2cc3cc(O)c(Cl)cc3[nH]2)c2c(N)ncnc21` [Compound 32], the half-maximal inhibitory concentration (IC50) in experiment [1] (Table 2) was > 500 nM; in experiment [2] it was > 500 nM; in experiment [3], > 500 nM; in experiment [4] (Table 2), < 500 nM.

On to `Nc1ncnc2c1c(-c1cc3cc(O)ccc3[nH]1)nn2CC(=O)N1CCOCC1` [Compound 34], for which the IC50 in experiment [1], in experiment [2], in experiment [3] and in experiment [4] (Table 2) was > 500 nM in each case.

Regarding `Nc1ncnc2c1c(-c1cc3cccc(O)c3[nH]1)nn2C1CCOCC1` [Compound 62], the IC50 was > 500 nM in experiment [1] (Table 2); > 500 nM in experiment [2] (Table 2); 50 to 100 nM in experiment [3] (Table 2); < 5 nM in experiment [4] (Table 2); > 500 nM in experiment [5] (Table 2).

Turning to `Nc1nc2cc(-c3ccc4ncc(N5C6CCC5COC6)nc4n3)ccc2o1` [Compound 570], the IC50 in experiment [1] (Table 4) was < 100 nM; in experiment [2] (Table 4), < 100 nM; in experiment [3], > 10000 nM; in experiment [4] (Table 4), > 10000 nM; in experiment [5] (Table 4) it was > 10000 nM.

Turning to `CC(=O)N1CCC(n2nc(-c3cc4ccc(O)cc4[nH]3)c3c(N)ncnc32)CC1` [Compound 65], the IC50 was 10 to 25 nM in experiment [1] (Table 2); 25 to 50 nM in experiment [2]; 10 to 25 nM in experiment [3]; < 10 nM in experiment [4] (Table 2); > 500 nM in experiment [5] (Table 2).

For the molecule `CN1CC2CN(c3cnc4ccc(-c5ccc6oc(N)nc6c5)nc4c3)CC2C1` (stereo not shown) [Compound 630], the IC50 is < 1000 nM in experiment [1] (Table 4); < 100 nM in experiment [2] (Table 4); < 1000 nM in experiment [3] (Table 4); > 10000 nM in experiment [4] (Table 4); < 1000 nM in experiment [5] (Table 4).

On to `CNC(=O)CCn1nc(-c2cc3cc(O)ccc3[nH]2)c2c(N)ncnc21` [Compound 43], for which the IC50 in experiment [2], in experiment [3] (Table 2), in experiment [4] (Table 2) and in experiment [5] (Table 2) was > 500 nM each time.

`CC(C)[C@@H](N)C(=O)N1CCN(c2cnc3ccc(-c4ccc5oc(N)nc5c4)cc3n2)CC1` [Compound 270]: the IC50 was < 100 nM in experiment [2], < 1000 nM in experiment [3], < 10000 nM in experiment [4] and < 1000 nM in experiment [5].

Take `Nc1ncnc2c1c(-c1cc3cc(O)ccc3[nH]1)nn2C1CC(=O)C1` [Compound 53]: the IC50 was > 500 nM in experiment [1] (Table 2), > 500 nM in experiment [2], < 100 nM in experiment [4] (Table 2) and > 500 nM in experiment [5] (Table 2).

Regarding `Nc1ncnc2c1c(-c1cc3cc(O)ccc3[nH]1)nn2C1CC(O)C1` (stereo not shown) [Compound 54], the IC50 in experiment [1] (Table 2) is > 500 nM; in experiment [2] (Table 2) it was > 500 nM; in experiment [4] (Table 2), < 25 nM; in experiment [5] (Table 2) it was > 500 nM.

With `COCCn1nc(-c2cc3cc(O)ccc3[nH]2)c2c(N)ncnc21` [Compound 40], the concentration for half-maximal inhibition (IC50) in experiment [1] (Table 2) was > 500 nM; in experiment [2] (Table 2), > 500 nM; in experiment [3] it was > 500 nM; in experiment [4] (Table 2) it was < 100 nM.

Consider `CC(=O)N1CCC(n2nc(-c3cc4cc(O)ccc4[nH]3)c3c(N)ncnc32)CC1` [Compound 30], for which the IC50 in experiment [2] was > 500 nM; in experiment [3] (Table 2) it was > 500 nM; in experiment [4] (Table 2), < 25 nM; in experiment [5] (Table 2), > 500 nM.

In the case of `COc1ccc2cc(-c3nn(C4CCOCC4)c4ncnc(N)c34)[nH]c2c1` [Compound 59], the IC50 in experiment [1] (Table 2), in experiment [2] (Table 2), in experiment [4] (Table 2) and in experiment [5] (Table 2) was > 500 nM throughout.

As for `CC(C)N1CCC(n2nc(-c3cc4cc(O)cc(Cl)c4[nH]3)c3c(N)ncnc32)CC1` [Compound 56], the IC50 in experiment [1] (Table 2), in experiment [2], in experiment [4] (Table 2) and in experiment [5] (Table 2) was > 500 nM in each case.

Take `Nc1ncnc2c1c(-c1cc3cc(O)ccc3[nH]1)nn2C1CCN(C(=O)C2CC2)CC1` [Compound 31]: the IC50 in experiment [2] was > 500 nM; in experiment [3] (Table 2), 100 to 500 nM; in experiment [4] (Table 2), < 25 nM; in experiment [5] (Table 2), > 500 nM.

`Cc1nccn1CCn1nc(-c2cc3cc(O)ccc3[nH]2)c2c(N)ncnc21` [Compound 44]: the 50% inhibitory concentration (IC50) in experiment [2] (Table 2) was > 500 nM; in experiment [3], > 500 nM; in experiment [4] (Table 2) it was < 100 nM; in experiment [5] (Table 2) it was > 500 nM.
